{"source": "ChEMBL document CHEMBL1201862", "about": "“PubChem BioAssay data set” (2004)", "key": {"[1]": {"assay": "viability inhibitors of stage V gametocytes – luminescence, dose response (AID 1117278);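 also: gametocytes exposed to compound for 24 hours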", "type": "functional, cell-based"}, "[2]": {"assay": "viability loss in human Jurkat cells – cell-based, luminescence, cytotoxicity control for P. falciparum gametocyte viability project, dose response (AID 1117277);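 also: potency reflects loss of cellular ATP meaning fewer viable cells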", "type": "functional"}, "[3]": {"assay": "Trypanosoma cruzi growth suppression in host cells – NIH3T3 host cells, beta-gal luminescence, confirmation (AID 2044);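 also: luminescent beta-galactosidase reporter signal from transgenic T. cruzi replicating inside host cells; inhibitors lower the luminescence signal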", "type": "functional, cell-based"}, "[4]": {"assay": "NIH3T3 cell viability loss – ATP luminescence, mouse fibroblasts, counter-screen, dose response (AID 2010);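 also: cells exposed to compound for about 90 hours before reading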", "type": "functional, cell-based"}, "[5]": {"target": "Disintegrin and metalloproteinase domain-containing protein 17 (Homo sapiens, UniProt P78536)", "sequence (P78536 whole entry, the tested form may be a part)": "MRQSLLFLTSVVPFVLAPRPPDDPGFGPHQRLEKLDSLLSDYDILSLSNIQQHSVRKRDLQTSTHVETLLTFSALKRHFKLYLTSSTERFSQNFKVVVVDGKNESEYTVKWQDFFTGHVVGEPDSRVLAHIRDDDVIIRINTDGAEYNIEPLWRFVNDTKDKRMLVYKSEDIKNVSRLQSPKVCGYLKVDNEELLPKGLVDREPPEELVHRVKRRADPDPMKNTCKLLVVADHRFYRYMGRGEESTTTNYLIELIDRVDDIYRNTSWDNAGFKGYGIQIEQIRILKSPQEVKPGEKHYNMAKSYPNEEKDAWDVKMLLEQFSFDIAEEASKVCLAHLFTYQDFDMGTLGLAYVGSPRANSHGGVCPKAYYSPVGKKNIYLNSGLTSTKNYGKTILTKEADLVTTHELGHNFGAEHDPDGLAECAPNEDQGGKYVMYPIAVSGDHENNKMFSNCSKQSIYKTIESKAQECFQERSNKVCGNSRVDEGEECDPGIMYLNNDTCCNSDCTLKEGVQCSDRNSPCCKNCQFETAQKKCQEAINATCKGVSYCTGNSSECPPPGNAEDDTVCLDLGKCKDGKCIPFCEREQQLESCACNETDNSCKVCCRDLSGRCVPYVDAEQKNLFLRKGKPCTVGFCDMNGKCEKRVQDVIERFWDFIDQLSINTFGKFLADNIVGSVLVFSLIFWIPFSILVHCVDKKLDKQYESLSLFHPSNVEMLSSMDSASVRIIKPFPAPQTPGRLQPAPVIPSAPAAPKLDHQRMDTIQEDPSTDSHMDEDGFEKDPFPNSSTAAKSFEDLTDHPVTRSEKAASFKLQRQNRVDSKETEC", "assay": "exosite inhibitors of ADAM17, dose response, biochemical (AID 743260)"}, "[6]": {"assay": "inhibition of ADAM10 peptide cleavage – biochemical, FRET peptide substrate, recombinant human ADAM10, selectivity assay for ADAM17 exosite inhibitor project, dose response (AID 743259);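 also: ADAM10 enzyme cleaving a FRET peptide substrate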"}, "[7]": {"assay": "viability of uninfected HEp-2 cells – cell-based, HTS, cytotoxicity control for RSV inhibitor project, dose response (AID 2410)", "type": "functional", "details": "human respiratory syncytial virus"}, "[8]": {"assay": "microbe, parasite or virus in culture", "type": "functional", "details": "Mycobacterium tuberculosis"}, "[9]": {"assay": "A cytotoxicity screen of small molecule inhibitors of the PhoP region in Salmonella typhi identified in the primary screen. [Related pubchem assays: 1850, 1864, 1985 ]", "type": "functional"}}, "note": "Calls of active or inactive are those of the source.", "data": [{"compound": "Cc1sc2c(=O)n3c(nc2c1C(=O)NC1CCCCC1)CCCCC3", "values": [{"measurement": "IC50", "setting": "[1]", "result": "> 109 µM (inactive)"}, {"measurement": "IC50", "setting": "[2]", "result": "> 83.3 µM (inactive)"}]}, {"compound": "COc1ccc(C(=O)C[n+]2cc(-c3ccc(OC)cc3)n3c2CCCC3)cc1", "values": [{"measurement": "EC50", "setting": "[3]", "result": "0.243 µM (active)"}, {"measurement": "IC50", "setting": "[1]", "result": "> 109 µM (inactive)"}, {"measurement": "EC50", "setting": "[4]", "result": "> 60 µM (not active)"}, {"measurement": "IC50", "setting": "[2]", "result": "> 83.3 µM (inactive)"}]}, {"compound": "CCOC(=O)c1sc(NC(=O)CN2C(=O)NC3(CC(C)CC(C)(C)C3)C2=O)cc1C", "note": "(configuration not stated)", "values": [{"measurement": "EC50", "setting": "[3]", "result": "2.17 µM (active)"}, {"measurement": "IC50", "setting": "[5]", "result": "> 69.5 µM (inactive)"}, {"measurement": "EC50", "setting": "[4]", "result": "9.25 µM (active)"}, {"measurement": "IC50", "setting": "[6]", "result": "10.6 µM (inactive)"}, {"measurement": "CC50", "setting": "[7]", "result": "14.9 µM (active)"}, {"measurement": "CC50", "setting": "[8]", "result": "30.6 µM (active)"}]}, {"compound": "Cc1cc(C)nc(SCC(=O)NCc2ccco2)n1", "values": [{"measurement": "EC50", "setting": "[9]", "result": "> 50 µM (active)"}]}, {"compound": "CCOC(=O)CN1C2=NCCN2c2ccccc21", "values": [{"measurement": "IC50", "setting": "[1]", "result": "> 109 µM (inactive)"}, {"measurement": "IC50", "setting": "[2]", "result": "> 83.4 µM (inactive)"}]}, {"compound": "CNS(=O)(=O)c1cccc(C(=O)OCc2cc(=O)oc3c(C)c(O)ccc23)c1", "values": [{"measurement": "EC50", "setting": "[9]", "result": "> 50 µM (active)"}]}, {"compound": "CN(Cc1ccc(F)cc1)C(=O)c1cccc(OCc2ccccc2)c1", "values": [{"measurement": "IC50", "setting": "[5]", "result": "> 69.5 µM (inactive)"}, {"measurement": "IC50", "setting": "[6]", "result": "21.5 µM (inactive)"}]}, {"compound": "CCOC(=O)c1ccc(NC(=O)CCOc2ccc(C)cc2)cc1", "values": [{"measurement": "IC50", "setting": "[1]", "result": "> 109 µM (inactive)"}, {"measurement": "IC50", "setting": "[2]", "result": "> 83.3 µM (inactive)"}]}, {"compound": "COc1ccc(NS(=O)(=O)c2ccc(OC)c(NC(=O)CCC3CCCC3)c2)cc1", "values": [{"measurement": "IC50", "setting": "[5]", "result": "> 69.5 µM (inactive)"}, {"measurement": "IC50", "setting": "[6]", "result": "> 69.5 µM (inactive)"}]}]}
